Experimental data: patent publication US20100130450A1, “Methods of Treating Fungal Infections” (NORTHEASTERN UNIVERSITY, priority 2007, published 2010)
“Also recorded” adds a separate entry of the source.

Key:
C. albicans = experiment: MIC; assay type: cell-based, Candida albicans
[1] = system: Candida albicans strain CAF4-2 biofilms; assay type: cell-based; details: for inhibition of metabolic activity by the compound alone (XTT): any concentration tested
Method: Specifically, a screen was developed using C. albicans cells treated with miconazole at subinhibitory concentrations, to which candidate potentiator compounds were added. […] In order to make the screen compatible with high-throughput approaches, biofilms were grown in microtiter plates and the reduction of a vital dye XTT, commonly used to monitor yeast viability, was used as the quantitative readout.
Microtiter plate wells were seeded with wild type Candida albicans strain CAF4-2. Biofilms were grown for 48 hrs at 37° C., washed with PBS pH 7.4, and resuspended in a final volume of 100 μl RPMI containing 10 μg/ml miconazole. Individual compounds from ChemBridge DiverSet E (ChemBridge Corp., San Diego, Calif.) were then added at 10 μg/ml to the wells. Plates were incubated for 24 hrs and XTT (Sigma-X4751) was added at 1 mg/ml to each well. After 4 hrs of incubation at 37° C., reduction of XTT was monitored by recording the optical density at 690 nm (subtracted from OD450) with a microtiter plate reader. Hits were identified when XTT reduction was inhibited by more than 30% of the control values.
A checkerboard assay was then performed to examine possible synergy between miconazole and the hits. 100 μg/ml miconazole (2× dilution in each subsequent well, y-axis) and 100 μg/ml compound AC9 (2× dilution, x-axis) were added to mature 48 hr wild type C. albicans biofilms and incubated for an additional 24 hrs in the presence of the drugs. XTT was added to each well at 1 mg/ml and biofilms were incubated at 37° C. for an additional 4 hrs.
As described in Example 2, initially 5,000 compounds of the 16,000 from the ChemBridge library were screened for potentiators of miconazole action against C. albicans biofilms. A larger screen is conducted on the remaining 11,000 compounds from the ChemBridge library. Screening is performed as described in Example 2 using 96-well plates. Candida biofilms are formed by growing cells for 48 hrs at 37° C. in a shaking incubator in 96-well microtiter plates according to standard protocol (Ramage et al., Antimicrob. Agents Chemother. 45:2475-2479 (2001)). […] 10 μg/ml miconazole is added to each well and 10 μg/ml of unique compounds is added to rows 2-11 and the plates are incubated for 24 hrs at 37° C. XTT is then added to each well at 1 mg/ml and the plates are incubated for an additional 4 hrs at 37° C. The amount of XTT converted to dye is quantified with a plate reader by subtracting the optical density at 690 nm from the optical density at 450 nm. […] Positive hits are scored when the optical density of the experimental well is <0.7.

[2] = system: Mature biofilms of wild type C. albicans; experiment: Potentiation of biofilm killing by miconazole, CFU analysis; assay type: cell-based, Candida albicans; details: for biofilm killing by the compound alone (CFU): alone: 100 μg/ml miconazole or 200 μg/ml hit compound
Method: Next, the same checkerboard assay was repeated to test the ability of the hit compounds to potentiate biofilm killing by miconazole. Mature biofilms of wild type C. albicans were challenged with 100 μg/ml miconazole, 200 μg/ml of the hit compound, or a combination of the two for 24 hrs. Biofilms were then washed, scraped, resuspended in PBS, vortexed for 30 seconds and plated for CFU analysis.

[3] = mouse; cited from earlier work
[4] = system: Biofilms of C. albicans 3153A cells; experiment: C. albicans biofilm killing by antifungals, CFU determination; assay type: cell-based, Candida albicans; details: for shape of biofilm killing curve: dose-dependent
Method: Biofilms of C. albicans 3153A cells were cultured in wells of microtiter plates in RPMI medium for 48 hrs (Ramage et al., Antimicrob. Agents Chemother. 45:2475-2479 (2001)), washed twice in PBS pH 7.4 to remove nonadherent cells, and resuspended in 100 μl RPMI growth medium containing antifungals. After 24 hrs of antifungal challenge, the biofilms and cultures were washed twice, resuspended in 100 μl PBS, scraped, transferred into eppendorf tubes, vortexed and plated for colony forming unit (CFU) determination on YPD medium. […] In parallel, exponentially growing and stationary planktonic cultures were grown for 48 hrs in RPMI medium, and then antifungals were added for 24 hrs. The experiment was performed in triplicate and error bars indicate standard deviation (see FIG. 1).
Biofilms were grown in microtiter plates and were treated with amphotericin B or chlorhexidine (100 μg/ml) for 24 hrs, after which they were washed and vortexed, as discussed above. The cells were then reinoculated into microtiter plates to form new biofilms. The new biofilms, derived from persisters that survived drug treatment, were again treated with the antifungal agents (as discussed above), and the procedure was repeated a total of 3 times. Biofilms were sampled for CFU determination before and after antifungal treatment. The experiment was performed in triplicate.
Tests were also performed to determine if yeast persisters were multidrug tolerant. Mature, 48 hr biofilms of C. albicans were challenged for 24 hrs with 100 μg/ml amphotericin B, 100 μg/ml chlorhexidine, or a combination of these two antifungal agents, using the same procedures discussed above. Biofilms were washed and sampled for CFU determination before and after antifungal treatment, as discussed above.

[5] = system: C. albicans 3153A planktonic cultures; experiment: Killing of exponentially growing and stationary planktonic cultures, CFU; assay type: cell-based, Candida albicans; details: antifungal added for 24 hrs
Method: (§1) Biofilms of C. albicans 3153A cells were cultured in wells of microtiter plates in RPMI medium for 48 hrs (Ramage et al., Antimicrob. Agents Chemother. 45:2475-2479 (2001)), washed twice in PBS pH 7.4 to remove nonadherent cells, and resuspended in 100 μl RPMI growth medium containing antifungals. After 24 hrs of antifungal challenge, the biofilms and cultures were washed twice, resuspended in 100 μl PBS, scraped, transferred into eppendorf tubes, vortexed and plated for colony forming unit (CFU) determination on YPD medium. […] This could lead to an underestimation of surviving cells by a factor of ≦10. In parallel, exponentially growing and stationary planktonic cultures were grown for 48 hrs in RPMI medium, and then antifungals were added for 24 hrs. The experiment was performed in triplicate and error bars indicate standard deviation (see FIG. 1).

[6] = system: biofilm-deficient strains of C. albicans; experiment: Persister formation by biofilm-deficient strains (survival to high levels of amphotericin B); assay type: cell-based, Candida albicans
Method: as §1
Given that persisters appeared only in the biofilm, their formation was dependent on the same genes/pathways that determine biofilm development. A large panel of biofilm-defective mutants was therefore tested for their ability to produce persisters by measuring survival to high levels of amphotericin B. These mutants were able to adhere to the surface of a microtiter plate, making it possible to assay in the biofilm survival protocol described above. Unexpectedly, all strains appeared to produce essentially normal levels of persisters (Table 1).

For `Clc1ccc(COC(Cn2ccnc2)c2ccc(Cl)cc2Cl)c(Cl)c1` (stereo not shown) [miconazole], the “MIC of logarithmically growing cells” value (C. albicans) was 0.03 μg/ml, the “inhibition of metabolic activity by the compound alone (XTT)” value [1] was “Neither miconazole nor AC9 alone inhibited metabolic activity” and the “XTT reduction by biofilm” value ([1]; miconazole alone at 10 μg/ml, 24 hrs) was “indistinguishable from biofilms with no miconazole”. The “biofilm killing by the compound alone (CFU)” value ([2]; 24 hrs) was “Neither miconazole nor AC9 alone had any killing activity” and the LD50 [3] was 519 mg/kg.
In the case of `C[C@@H]1[C@H](O)[C@@H](C)/C=C/C=C/C=C/C=C/C=C/C=C/C=C/[C@H](O[C@@H]2O[C@H](C)[C@@H](O)[C@H](N)[C@@H]2O)C[C@@H]2O[C@](O)(C[C@@H](O)C[C@@H](O)[C@H](O)CC[C@@H](O)C[C@@H](O)CC(=O)O[C@H]1C)C[C@H](O)[C@H]2C(=O)O` [amphotericin B], the “shape of biofilm killing curve” value ([4]; 24 hrs challenge, CFU) is reported as “biphasic killing”, the “biofilm cells invulnerable to the drug (persisters)” value ([4]; higher concentrations, 24 hrs challenge) is reported as “More than 1%” and the “killing of exponentially growing and stationary planktonic cells” value [5] is reported as “effectively killed exponentially growing and stationary cells”. For the same molecule, the Persisters ([6]; strain 3153A) was “+++^1 (1-2% survival)”, the Persisters ([6]; strain CAI4) was “+^3 (0.05-0.1% survival)” and the Persisters ([6]; strain CJN698) was “++ (0.1-1% survival)”. The Persisters ([6]; strain CJN702) was “++ (0.1-1% survival)”, the Persisters ([6]; strain CKY136) was “+++ (1-2% survival)” and the Persisters ([6]; strain CKY138) was “++ (0.1-1% survival)”. The Persisters ([6]; strain CKY357) was “++^2 (0.1-1% survival)”, the Persisters ([6]; strain DAY185) was “++ (0.1-1% survival)” and the Persisters ([6]; strain DAY286) was “++ (0.1-1% survival)”. For the same molecule, the Persisters ([6]; strain GKO9) was “++ (0.1-1% survival)”, the Persisters ([6]; strain GKO443) was “++ (0.1-1% survival)” and the Persisters ([6]; strain GKO798) was “++ (0.1-1% survival)”. The Persisters ([6]; strain GKO814) was “++ (0.1-1% survival)”, the Persisters ([6]; strain MC191) was “+++ (1-2% survival)” and the Persisters ([6]; strain MC195) was “+ (0.05-0.1% survival)”. The Persisters ([6]; strain MC245) was “++ (0.1-1% survival)”.
With `Oc1c(/N=N/c2ccccn2)ccc2ccccc12` [AC9] the “calculated OD value (OD450 minus OD690) of the positive control” value ([1]; AC9 at 10 μg/ml plus 10 μg/ml miconazole, negative control >1) was 0.4, the “inhibition of metabolic activity by the compound alone (XTT)” value [1] was “Neither miconazole nor AC9 alone inhibited metabolic activity” and the “lowest concentration with inhibition of metabolic activity (XTT checkerboard)” value ([1]; in the presence of 12.5 μg/ml miconazole, 48 hr biofilm, 24 hrs) was 3.1 µg/mL. For the same molecule, the “synergy with miconazole (XTT checkerboard)” value ([1]; up to 100 μg/ml each, 2x dilutions) was “clear synergy”, the “rank among the hits in the XTT reduction inhibition checkerboard assay” value ([1]; with miconazole) was “most active compound among the hits” and the “biofilm killing in the presence of miconazole (CFU)” value ([2]; 100 μg/ml miconazole + 200 μg/ml compound, 24 hrs) was “Complete eradication; also recorded: completely eradicated”. For the same molecule, the “biofilm killing by the compound alone (CFU)” value ([2]; 24 hrs) was “Neither miconazole nor AC9 alone had any killing activity” and the “minimal concentration at which the compound potentiates complete killing of C. albicans by miconazole” value ([2]; with miconazole) was 100 µg/mL.
For `CC[C@H](C)C[C@H](C)CCCCCCCCC(=O)N[C@H]1C[C@@H](O)[C@@H](NCCN)NC(=O)[C@@H]2[C@@H](O)CCN2C(=O)[C@H]([C@H](O)CCN)NC(=O)[C@H]([C@H](O)[C@@H](O)c2ccc(O)cc2)NC(=O)[C@@H]2C[C@@H](O)CN2C(=O)[C@H]([C@@H](C)O)NC1=O` [Caspofungin, caspofungin], the killing of biofilms ([4]; 48 hr biofilm, 24 hrs antifungal challenge, CFU) was at most 10 fold.
With `[H]/N=C(\N/C(=N/[H])NCCCCCCNC(=N)NC(=N)Nc1ccc(Cl)cc1)Nc1ccc(Cl)cc1` [chlorhexidine] the “concentration at which killing of persisters was observed” value ([4]; 24 hrs challenge) was “above 100 μg/ml”, the “concentration at which the biofilm was completely sterilized” value ([4]; 24 hrs challenge) was 1000 µg/mL and the “shape of biofilm killing curve” value ([4]; 24 hrs challenge, CFU) was “biphasic killing”. The “killing of exponentially growing and stationary planktonic cells” value [5] was “eliminated”.
